Results taken from US20080200337A1, “Mixed herbicide compositions for paddy field” (Bayer CropScience, priority 2007, published 2008).

Columns and labels:
Assay type in all cases: in vivo
Echinochloa [1] = assay: Weed control, flooded paddy field, treatment at 1 leaf-stage (Test Example 1); conditions: after 4 weeks
Experimental: (§1) Carrier: 5 parts by weight of acetone
(§2) Surfactant: one part by weight of benzyloxy polyglycol ether.
(§3) Above described carrier and surfactant are mixed with one part by weight of the active compound ((a) ingredient and (b) ingredient) and the resulting preparation is then diluted with water to obtain given amount of the test drug (the formulation).
(§4) In a greenhouse, seeds or tubers of Echinochloa, Scirpus juncoides Roxburgh, Monochoria vaginalis Presl, annual broad-leaved weeds (Lindernia procumbens Philcox, Lindernia dubia L. Penn., Rotala indica Koehne, Elatine triandra Schk, Ammannia multiflora Roxb.), Cyperus serotinus Rottboel and Sagittaria pygmaea Miq. were inoculated in a 500 cm^2 pot filled with paddy field soil. After 2 leaf-stage of rice were transplanted, water was poured to a depth of about 3 cm. At 1.0 leaf-stage of Echinochloa oryzicola Vasing, a prescribed, diluted solution of the formulation of each active compound and each herbicidal compound in the table was separately or simultaneously applied to the surface of water. After the treatment, the water depth of 3 cm was maintained, and herbicidal effect was examined after 4 weeks. In the assessment of the herbicidal effect and the phytotoxicity, 100% refers to complete death and 0% refers to no effect or no phytotoxicity.

[2] = tested on: Scirpus juncoides Roxburgh; assay: as above; conditions: after 4 weeks
Experimental: as §1, §2, §3, §4

Sagittaria pygmaea Miq. [3] = assay: as above; conditions: after 4 weeks
Experimental: as §1, §2, §3, §4

[4] = tested on: Cyperus serotinus Rottboel; assay: as above; conditions: after 4 weeks
Experimental: as §1, §2, §3, §4

[5] = tested on: annual broad-leaved weeds; assay: as above; conditions: after 4 weeks
Experimental: as §1, §2, §3, §4

[6] = tested on: Monochoria vaginalis Presl; assay: as above; conditions: after 4 weeks
Experimental: as §1, §2, §3, §4

transplanted rice [7] = assay: Phytotoxicity, flooded paddy field, treatment at 3 leaf-stage (Test Example 2); conditions: rice, in vivo, 4 weeks
Experimental: as §1, §2, §3
as §4, with “Echinochloa, Cyperus difformis L.,” for “Echinochloa,”, “3.0” for “1.0”, “Echinochloa,” for “Echinochloa oryzicola Vasing,”

Echinochloa [8] = assay: Weed control, flooded paddy field, treatment at 3 leaf-stage (Test Example 2); conditions: after 4 weeks
Experimental: as §1, §2, §3
as §4, with “Echinochloa, Cyperus difformis L.,” for “Echinochloa,”, “3.0” for “1.0”, “Echinochloa,” for “Echinochloa oryzicola Vasing,”

[9] = tested on: Scirpus juncoides Roxburgh; assay: as above; conditions: after 4 weeks
Experimental: as §1, §2, §3
as §4, with “Echinochloa, Cyperus difformis L.,” for “Echinochloa,”, “3.0” for “1.0”, “Echinochloa,” for “Echinochloa oryzicola Vasing,”

Sagittaria pygmaea Miq. [10] = assay: as above; conditions: after 4 weeks
Experimental: as §1, §2, §3
as §4, with “Echinochloa, Cyperus difformis L.,” for “Echinochloa,”, “3.0” for “1.0”, “Echinochloa,” for “Echinochloa oryzicola Vasing,”

[11] = tested on: Cyperus serotinus Rottboel; assay: as above; conditions: after 4 weeks
Experimental: as §1, §2, §3
as §4, with “Echinochloa, Cyperus difformis L.,” for “Echinochloa,”, “3.0” for “1.0”, “Echinochloa,” for “Echinochloa oryzicola Vasing,”

[12] = tested on: annual broad-leaved weeds; assay: as above; conditions: after 4 weeks
Experimental: as §1, §2, §3
as §4, with “Echinochloa, Cyperus difformis L.,” for “Echinochloa,”, “3.0” for “1.0”, “Echinochloa,” for “Echinochloa oryzicola Vasing,”

[13] = tested on: Monochoria vaginalis Presl; assay: as above; conditions: after 4 weeks
Experimental: as §1, §2, §3
as §4, with “Echinochloa, Cyperus difformis L.,” for “Echinochloa,”, “3.0” for “1.0”, “Echinochloa,” for “Echinochloa oryzicola Vasing,”

transplanted rice [14] = assay: Phytotoxicity, flooded paddy field, treatment at 1 leaf-stage (Test Example 1)
Experimental: as §1, §2, §3, §4

[15] = tested on: Echinochloa oryzicola Vasing; assay: Weed control by spray treatment at 1.5 to 3.0 leaf-stage (Test Example 3); conditions: spray at 1.5 to 3.0 leaf-stage, 4 weeks later
Experimental: as §1, §2, §3
(§5) In a greenhouse, seeds of rice (var.: Nipponbare and RD23) and weeds (Echinochloa oryzicola Vasing, Echinochloa cruss-galli, Leptochloa chinensis, Cyperus difformis L., Cyperus iria L., annual broad-leaved weeds (Monochoria vaginalis Presl, Lindernia procumbens Philcox, Lindernia dubia L. Penn., Rotala indica Koehne, Elatine triandra Schk, Ammannia multiflora Roxb. and the like)) were sown in a 500 cm^2 pot filled with paddy field soil and covered with soil. Water was added to the pot (a depth of 0 cm) to be a wet condition, and each test plant was grown in the greenhouse to 1.5 to 3.0 leaf-stage, after then a prescribed, diluted solution of the formulation of each active compound and each herbicidal compound in the table were separately or simultaneously sprayed over the pots with plants. At 3 days after the treatment, the water depth of 3 cm was maintained, and 4 weeks later, herbicidal effect was then examined. In the assessment of the herbicidal effect and the phytotoxicity, 100% refers to complete death and 0% refers to no effect or no phytotoxicity.

Leptochloa chinensis = assay: as above; conditions: spray at 1.5 to 3.0 leaf-stage, 4 weeks later
Experimental: as §1, §2, §3, §5

Echinochloa cruss-galli = assay: as above; conditions: spray at 1.5 to 3.0 leaf-stage, 4 weeks later
Experimental: as §1, §2, §3, §5

[16] = tested on: annual broad-leaved weeds; assay: as above; conditions: spray at 1.5 to 3.0 leaf-stage, 4 weeks later
Experimental: as §1, §2, §3, §5

Cyperus difformis L. = assay: as above; conditions: spray at 1.5 to 3.0 leaf-stage, 4 weeks later
Experimental: as §1, §2, §3, §5

[17] = tested on: Monochoria vaginalis Presl; assay: as above; conditions: spray at 1.5 to 3.0 leaf-stage, 4 weeks later
Experimental: as §1, §2, §3, §5

Cyperus iria L. = assay: as above; conditions: spray at 1.5 to 3.0 leaf-stage, 4 weeks later
Experimental: as §1, §2, §3, §5

[18] = tested on: submerged direct sown paddy (Nipponbare); assay: Phytotoxicity, spray treatment at 1.5 to 3.0 leaf-stage (Test Example 3); conditions: spray at 1.5 to 3.0 leaf-stage, 4 weeks later
Experimental: as §1, §2, §3, §5

[19] = tested on: submerged direct sown paddy (RD-23); assay: as above; conditions: spray at 1.5 to 3.0 leaf-stage, 4 weeks later, RD-23
Experimental: as §1, §2, §3, §5

Compound: Cc1ccc(C(=O)COc2c(C(=O)c3ccc(Cl)c(C)c3Cl)c(C)nn2C)cc1 [(b-3), benzofenap]
- Herbicidal effect (%) ECHSS (Echinochloa [1]; 800 g ai/ha): 80%
- Herbicidal effect (%) SCPSS ([2]; 800 g ai/ha): 70%
- Herbicidal effect (%) SAGPY (Sagittaria pygmaea Miq. [3]; 800 g ai/ha): 70%
- Herbicidal effect (%) CYPSEE ([4]; 800 g ai/ha): 20%
- Herbicidal effect (%) BBBBB ([5]; 800 g ai/ha): 100%
- Herbicidal effect (%) MOOVP ([6]; 800 g ai/ha): 80%
- Phytotoxicity (%) ORYSP (transplanted rice [7]): 0%
- Herbicidal effect (%) ECHSS (Echinochloa [8]; 800 g ai/ha): 10%
- Herbicidal effect (%) SCPSS ([9]; 800 g ai/ha): 0%
- Herbicidal effect (%) SAGPY (Sagittaria pygmaea Miq. [10]; 800 g ai/ha): 60%
- Herbicidal effect (%) CYPSEE ([11]; 800 g ai/ha): 0%
- Herbicidal effect (%) BBBBB ([12]; 800 g ai/ha): 70%
- Herbicidal effect (%) MOOVP ([13]; 800 g ai/ha): 50%
- Phytotoxicity (%) ORYSP (transplanted rice [14]; 800 g ai/ha, treatment at 1 leaf-stage, after 4 weeks): 0%

Compound: COc1nc(OC)nc(C(=O)c2cccc(Cl)c2N(C)S(=O)(=O)C(F)F)n1 [(a-2)]
- Herbicidal effect (%) ECHOR ([15]; 30 g ai/ha): 100%
- Herbicidal effect (%) ECHOR ([15]; 50 g ai/ha): 100%
- Herbicidal effect (%) LEFCH (Leptochloa chinensis; 30 g ai/ha): 65%
- Herbicidal effect (%) LEFCH (Leptochloa chinensis; 50 g ai/ha): 65%
- Herbicidal effect (%) ECHCG (Echinochloa cruss-galli; 30 g ai/ha): 100%
- Herbicidal effect (%) ECHCG (Echinochloa cruss-galli; 50 g ai/ha): 100%
- Herbicidal effect (%) BBBBB ([16]; 30 g ai/ha): 70%
- Herbicidal effect (%) BBBBB ([16]; 50 g ai/ha): 85%
- Herbicidal effect (%) CYPDI (Cyperus difformis L.; 30 g ai/ha): 100%
- Herbicidal effect (%) CYPDI (Cyperus difformis L.; 50 g ai/ha): 100%
- Herbicidal effect (%) MOOVP ([17]; 30 g ai/ha): 40%
- Herbicidal effect (%) MOOVP ([17]; 50 g ai/ha): 65%
- Herbicidal effect (%) CYPIR (Cyperus iria L.; 30 g ai/ha): 100%
- Herbicidal effect (%) CYPIR (Cyperus iria L.; 50 g ai/ha): 100%
- Phytotoxicity (%) ORYSW*^1 ([18]; 30 g ai/ha): 5%
- Phytotoxicity (%) ORYSW*^1 ([18]; 50 g ai/ha): 10%
- Phytotoxicity (%) ORYSW*^2 ([19]; 30 g ai/ha): 5%
- Phytotoxicity (%) ORYSW*^2 ([19]; 50 g ai/ha): 10%

Compound: COC(=O)c1ccccc1CS(=O)(=O)NC(=O)Nc1nc(OC)cc(OC)n1 [(b-4), bensulfuron methyl]
- Herbicidal effect (%) ECHSS (Echinochloa [1]; 50 g ai/ha): 50%
- Herbicidal effect (%) SCPSS ([2]; 50 g ai/ha): 90%
- Herbicidal effect (%) SAGPY (Sagittaria pygmaea Miq. [3]; 50 g ai/ha): 90%
- Herbicidal effect (%) CYPSEE ([4]; 50 g ai/ha): 85%
- Herbicidal effect (%) BBBBB ([5]; 50 g ai/ha): 90%
- Herbicidal effect (%) MOOVP ([6]; 50 g ai/ha): 90%
- Phytotoxicity (%) ORYSP (transplanted rice [7]): 0%
- Herbicidal effect (%) ECHSS (Echinochloa [8]; 50 g ai/ha): 20%
- Herbicidal effect (%) SCPSS ([9]; 50 g ai/ha): 85%
- Herbicidal effect (%) SAGPY (Sagittaria pygmaea Miq. [10]; 50 g ai/ha): 80%
- Herbicidal effect (%) CYPSEE ([11]; 50 g ai/ha): 80%
- Herbicidal effect (%) BBBBB ([12]; 50 g ai/ha): 90%
- Herbicidal effect (%) MOOVP ([13]; 50 g ai/ha): 90%
- Phytotoxicity (%) ORYSP (transplanted rice [14]; rice, in vivo, 4 weeks): 0%

Compound: COc1nc(OC)nc(C(O)c2cccc(Cl)c2N(C)S(=O)(=O)C(F)F)n1 (stereo not shown) [(a-4)]
- Herbicidal effect (%) ECHOR ([15]; 30 g ai/ha): 100%
- Herbicidal effect (%) ECHOR ([15]; 50 g ai/ha): 100%
- Herbicidal effect (%) LEFCH (Leptochloa chinensis; 30 g ai/ha): 50%
- Herbicidal effect (%) LEFCH (Leptochloa chinensis; 50 g ai/ha): 50%
- Herbicidal effect (%) ECHCG (Echinochloa cruss-galli; 30 g ai/ha): 100%
- Herbicidal effect (%) ECHCG (Echinochloa cruss-galli; 50 g ai/ha): 100%
- Herbicidal effect (%) BBBBB ([16]; 30 g ai/ha): 65%
- Herbicidal effect (%) BBBBB ([16]; 50 g ai/ha): 75%
- Herbicidal effect (%) CYPDI (Cyperus difformis L.; 30 g ai/ha): 100%
- Herbicidal effect (%) CYPDI (Cyperus difformis L.; 50 g ai/ha): 100%
- Herbicidal effect (%) MOOVP ([17]; 30 g ai/ha): 25%
- Herbicidal effect (%) MOOVP ([17]; 50 g ai/ha): 25%
- Herbicidal effect (%) CYPIR (Cyperus iria L.; 30 g ai/ha): 100%
- Herbicidal effect (%) CYPIR (Cyperus iria L.; 50 g ai/ha): 100%
- Phytotoxicity (%) ORYSW*^1 ([18]; 30 g ai/ha): 0%
- Phytotoxicity (%) ORYSW*^1 ([18]; 50 g ai/ha): 5%
- Phytotoxicity (%) ORYSW*^2 ([19]; 30 g ai/ha): 0%
- Phytotoxicity (%) ORYSW*^2 ([19]; 50 g ai/ha): 0%
